From PubChem BioAssay AID1745844 (Carcinogenic Potency Database (CPDB), 2022)
The source made the active and inactive calls. The rule behind the calls is not given here.

Tested on: rodent lifetime carcinogenesis bioassay, tumor incidence TD50
Assay: chronic cancer bioassays in animals – CPDB, compiled studies (AID 1745844)

Nc1ccc(-c2ccc(N)cc2)cc1
TD50 (mouse, strain C57BL/6JfC3Hf/Nctr x BALB/cStCrlfC3Hf/Nctr inter se, females, in drinking water, site: Harderian gland, lesion: adenoma, dosed 143 weeks, study length 143 weeks): 41.1 mg/kg/day
TD50 (mouse, strain C57BL/6JfC3Hf/Nctr x BALB/cStCrlfC3Hf/Nctr inter se, females, in drinking water, site: liver, lesion: hepatocellular adenoma, dosed 60 weeks, study length 60 weeks): 30.2 mg/kg/day
TD50 (mouse, strain C57BL/6JfC3Hf/Nctr x BALB/cStCrlfC3Hf/Nctr inter se, females, in drinking water, site: liver, lesion: hepatocellular adenoma, dosed 80 weeks, study length 80 weeks): 78.7 mg/kg/day
TD50 (mouse, strain C57BL/6JfC3Hf/Nctr x BALB/cStCrlfC3Hf/Nctr inter se, females, in drinking water, site: liver, lesion: hepatocellular carcinoma, dosed 60 weeks, study length 60 weeks): 17.9 mg/kg/day
TD50 (mouse, strain C57BL/6JfC3Hf/Nctr x BALB/cStCrlfC3Hf/Nctr inter se, females, in drinking water, site: liver, lesion: hepatocellular carcinoma, dosed 80 weeks, study length 80 weeks): 9.6 mg/kg/day
TD50 (mouse, strain C57BL/6JfC3Hf/Nctr x BALB/cStCrlfC3Hf/Nctr inter se, females, in drinking water, site: liver, lesion: hepatocellular carcinoma, dosed 143 weeks, study length 143 weeks): 18.9 mg/kg/day
TD50 (mouse, strain C57BL/6JfC3Hf/Nctr x BALB/cStCrlfC3Hf/Nctr inter se, females, in drinking water, site: uterus, lesion: angioma, dosed 143 weeks, study length 143 weeks): 402 mg/kg/day
TD50 (mouse, strain C57BL/6JfC3Hf/Nctr x BALB/cStCrlfC3Hf/Nctr inter se, males, in drinking water, site: Harderian gland, lesion: adenoma, dosed 143 weeks, study length 143 weeks): 208 mg/kg/day
TD50 (mouse, strain C57BL/6JfC3Hf/Nctr x BALB/cStCrlfC3Hf/Nctr inter se, males, in drinking water, site: liver, lesion: hepatocellular adenoma, dosed 60 weeks, study length 60 weeks): 67.7 mg/kg/day
TD50 (mouse, strain C57BL/6JfC3Hf/Nctr x BALB/cStCrlfC3Hf/Nctr inter se, males, in drinking water, site: liver, lesion: hepatocellular adenoma, dosed 80 weeks, study length 80 weeks): 186 mg/kg/day
TD50 (mouse, strain C57BL/6JfC3Hf/Nctr x BALB/cStCrlfC3Hf/Nctr inter se, males, in drinking water, site: liver, lesion: hepatocellular carcinoma, dosed 60 weeks, study length 60 weeks): 74.3 mg/kg/day
TD50 (mouse, strain C57BL/6JfC3Hf/Nctr x BALB/cStCrlfC3Hf/Nctr inter se, males, in drinking water, site: liver, lesion: hepatocellular carcinoma, dosed 80 weeks, study length 80 weeks): 39 mg/kg/day
TD50 (mouse, strain C57BL/6JfC3Hf/Nctr x BALB/cStCrlfC3Hf/Nctr inter se, males, in drinking water, site: liver, lesion: hepatocellular carcinoma, dosed 143 weeks, study length 143 weeks): 60.5 mg/kg/day
TD50 (mouse, strain C57BL/6JfC3Hf/Nctr x BALB/cStCrlfC3Hf/Nctr, females, in drinking water, site: Harderian gland, lesion: adenoma, dosed 143 weeks, study length 143 weeks): 51.7 mg/kg/day
TD50 (mouse, strain C57BL/6JfC3Hf/Nctr x BALB/cStCrlfC3Hf/Nctr, females, in drinking water, site: liver, lesion: hepatocellular adenoma, dosed 60 weeks, study length 60 weeks): 24.7 mg/kg/day
TD50 (mouse, strain C57BL/6JfC3Hf/Nctr x BALB/cStCrlfC3Hf/Nctr, females, in drinking water, site: liver, lesion: hepatocellular adenoma, dosed 79 weeks, study length 80 weeks): 41.9 mg/kg/day
TD50 (mouse, strain C57BL/6JfC3Hf/Nctr x BALB/cStCrlfC3Hf/Nctr, females, in drinking water, site: liver, lesion: hepatocellular carcinoma, dosed 60 weeks, study length 60 weeks): 17.1 mg/kg/day
TD50 (mouse, strain C57BL/6JfC3Hf/Nctr x BALB/cStCrlfC3Hf/Nctr, females, in drinking water, site: liver, lesion: hepatocellular carcinoma, dosed 79 weeks, study length 80 weeks): 8.99 mg/kg/day
TD50 (mouse, strain C57BL/6JfC3Hf/Nctr x BALB/cStCrlfC3Hf/Nctr, females, in drinking water, site: liver, lesion: hepatocellular carcinoma, dosed 143 weeks, study length 143 weeks): 10.9 mg/kg/day
TD50 (mouse, strain C57BL/6JfC3Hf/Nctr x BALB/cStCrlfC3Hf/Nctr, females, in drinking water, site: uterus, lesion: angioma, dosed 143 weeks, study length 143 weeks): 335 mg/kg/day
TD50 (mouse, strain C57BL/6JfC3Hf/Nctr x BALB/cStCrlfC3Hf/Nctr, males, in drinking water, site: Harderian gland, lesion: adenoma, dosed 143 weeks, study length 143 weeks): 129 mg/kg/day
TD50 (mouse, strain C57BL/6JfC3Hf/Nctr x BALB/cStCrlfC3Hf/Nctr, males, in drinking water, site: liver, lesion: hepatocellular adenoma, dosed 60 weeks, study length 60 weeks): 60.8 mg/kg/day
TD50 (mouse, strain C57BL/6JfC3Hf/Nctr x BALB/cStCrlfC3Hf/Nctr, males, in drinking water, site: liver, lesion: hepatocellular adenoma, dosed 80 weeks, study length 80 weeks): 94.8 mg/kg/day
TD50 (mouse, strain C57BL/6JfC3Hf/Nctr x BALB/cStCrlfC3Hf/Nctr, males, in drinking water, site: liver, lesion: hepatocellular carcinoma, dosed 60 weeks, study length 60 weeks): 97.5 mg/kg/day
TD50 (mouse, strain C57BL/6JfC3Hf/Nctr x BALB/cStCrlfC3Hf/Nctr, males, in drinking water, site: liver, lesion: hepatocellular carcinoma, dosed 80 weeks, study length 80 weeks): 33.2 mg/kg/day
TD50 (mouse, strain C57BL/6JfC3Hf/Nctr x BALB/cStCrlfC3Hf/Nctr, males, in drinking water, site: liver, lesion: hepatocellular carcinoma, dosed 143 weeks, study length 143 weeks): 31.2 mg/kg/day

CC
carcinogen call (mouse, strain B6C3F1, females, in feed, site: any site (literature study), lesion: several types, types named in the paper, dosed 103 weeks, study length 105 weeks): negative (inactive)
TD50 (mouse, strain B6C3F1, females, in feed, site: forestomach, lesion: several types, types named in the paper, dosed 96 weeks, study length 106 weeks): 111000 mg/kg/day (inactive)
TD50 (mouse, strain B6C3F1, females, in feed, site: liver, lesion: hepatocellular adenoma + hepatocellular carcinoma + neoplastic nodule, dosed 103 weeks, study length 105 weeks): 31100 mg/kg/day
carcinogen call (mouse, strain B6C3F1, females, in feed, site: liver, lesion: several types, types named in the paper, dosed 96 weeks, study length 106 weeks): negative (inactive)
TD50 (mouse, strain B6C3F1, females, in feed, site: lung, lesion: alveolar/bronchiolar adenoma + alveolar/bronchiolar carcinoma, dosed 103 weeks, study length 105 weeks): 24700 mg/kg/day
carcinogen call (mouse, strain B6C3F1, females, in feed, site: lung, lesion: several types, types named in the paper, dosed 96 weeks, study length 106 weeks): negative (inactive)
TD50 (mouse, strain B6C3F1, males, in feed, site: all sites, lesion: hemangioma, dosed 103 weeks, study length 105 weeks): 80800 mg/kg/day (inactive)
TD50 (mouse, strain B6C3F1, males, in feed, site: any site (literature study), lesion: several types, types named in the paper, dosed 103 weeks, study length 105 weeks): 46000 mg/kg/day
TD50 (mouse, strain B6C3F1, males, in feed, site: forestomach, lesion: squamous-cell papilloma, dosed 96 weeks, study length 106 weeks): 240000 mg/kg/day (inactive)
carcinogen call (mouse, strain B6C3F1, males, in feed, site: liver, lesion: several types, types named in the paper, dosed 96 weeks, study length 106 weeks): negative (inactive)
carcinogen call (mouse, strain B6C3F1, males, in feed, site: lung, lesion: several types, types named in the paper, dosed 96 weeks, study length 106 weeks): negative (inactive)
TD50 (rat, strain Fischer 344, females, in feed, site: any site (literature study), lesion: several types, types named in the paper, dosed 103 weeks, study length 105 weeks): 8310 mg/kg/day (inactive)
TD50 (rat, strain Fischer 344, males, in feed, site: any site (literature study), lesion: several types, types named in the paper, dosed 103 weeks, study length 105 weeks): 7970 mg/kg/day (inactive)
TD50 (rat, strain Fischer 344, males, in feed, site: liver, lesion: hepatocellular adenoma + hepatocellular carcinoma + neoplastic nodule, dosed 103 weeks, study length 105 weeks): 33500 mg/kg/day

CN(N=O)C(=O)NCCC[C@H](N)C(=O)O
TD50 (rat, strain Wistar albino, females, i.p., site: kidney, lesion: epithelial neoplasm, dosed 26 weeks, study length 52 weeks): 0.633 mg/kg/day
TD50 (rat, strain Wistar albino, females, i.p., site: kidney, lesion: mesenchymal neoplasm, dosed 26 weeks, study length 52 weeks): 0.633 mg/kg/day
carcinogen call (rat, strain Wistar albino, females, i.p., site: mammary tissue, wider than the gland, lesion: several types, types named in the paper, dosed 26 weeks, study length 52 weeks): positive
TD50 (rat, strain Wistar albino, females, i.p., site: pancreas, lesion: adenocarcinoma in adenomatous polyp, dosed 26 weeks, study length 52 weeks): 11 mg/kg/day
TD50 (rat, strain Wistar albino, females, i.p., site: skin, lesion: neoplasm, dosed 26 weeks, study length 52 weeks): 1.42 mg/kg/day
TD50 (rat, strain Wistar albino, males, i.p., site: Zymbal's gland, lesion: carcinoma, dosed 26 weeks, study length 52 weeks): 11.8 mg/kg/day
TD50 (rat, strain Wistar albino, males, i.p., site: kidney, lesion: epithelial neoplasm, dosed 26 weeks, study length 52 weeks): 1.04 mg/kg/day
TD50 (rat, strain Wistar albino, males, i.p., site: kidney, lesion: mesenchymal neoplasm, dosed 26 weeks, study length 52 weeks): 1.57 mg/kg/day
TD50 (rat, strain Wistar albino, males, i.p., site: pancreas, lesion: adenocarcinoma, dosed 26 weeks, study length 52 weeks): 11 mg/kg/day
TD50 (rat, strain Wistar albino, males, i.p., site: pancreas, lesion: several types, types named in the paper, dosed 26 weeks, study length 52 weeks): 5.25 mg/kg/day
TD50 (rat, strain Wistar albino, males, i.p., site: skin, lesion: neoplasm, dosed 26 weeks, study length 52 weeks): 1.04 mg/kg/day

COC(=O)[C@H]1[C@H]2C[C@@H]3c4[nH]c5ccccc5c4CCN3C[C@H]2C[C@@H](OC(=O)c2cc(OC)c(OC)c(OC)c2)[C@@H]1OC
TD50 (rat, strain Wistar, both sexes, in feed, site: several sites, sites named in the paper, lesion: several types, types named in the paper, dosed 78 weeks, study length 78 weeks): 1.28 mg/kg/day (inactive)

COc1cccc2c1cc([N+](=O)[O-])c1c(C(=O)O)cc3c(c12)OCO3
TD50 (rat, strain Wistar, females, by gavage, site: forestomach, lesion: several types, types named in the paper, dosed 52 weeks, study length 69 weeks): 0.0141 mg/kg/day
TD50 (rat, strain Wistar, females, by gavage, site: forestomach, lesion: squamous-cell carcinoma, dosed 52 weeks, study length 69 weeks): 0.101 mg/kg/day
TD50 (rat, strain Wistar, females, by gavage, site: forestomach, lesion: squamous-cell papilloma, dosed 52 weeks, study length 69 weeks): 0.0247 mg/kg/day
carcinogen call (rat, strain Wistar, males, by gavage, site: forestomach, lesion: squamous-cell carcinoma, dosed 52 weeks, study length 69 weeks): positive

Nc1ccc(/C=C/c2ccc(N)c(S(=O)(=O)O)c2)c(S(=O)(=O)O)c1
carcinogen call (mouse, strain B6C3F1, females, in feed, site: any site (literature study), lesion: several types, types named in the paper, dosed 103 weeks, study length 104 weeks): negative (inactive)
TD50 (mouse, strain B6C3F1, males, in feed, site: any site (literature study), lesion: several types, types named in the paper, dosed 103 weeks, study length 104 weeks): 12900 mg/kg/day
TD50 (mouse, strain B6C3F1, males, in feed, site: liver, lesion: hepatocellular adenoma + hepatocellular carcinoma + neoplastic nodule, dosed 103 weeks, study length 104 weeks): 9720 mg/kg/day
TD50 (mouse, strain B6C3F1, males, in feed, site: liver, lesion: hepatocellular adenoma, dosed 103 weeks, study length 104 weeks): 2570 mg/kg/day (inactive)
TD50 (rat, strain Fischer 344, females, in feed, site: any site (literature study), lesion: several types, types named in the paper, dosed 103 weeks, study length 104 weeks): 17600 mg/kg/day (inactive)
TD50 (rat, strain Fischer 344, males, in feed, site: any site (literature study), lesion: several types, types named in the paper, dosed 103 weeks, study length 104 weeks): 5810 mg/kg/day (inactive)
TD50 (rat, strain Fischer 344, males, in feed, site: liver, lesion: hepatocellular adenoma + hepatocellular carcinoma + neoplastic nodule, dosed 103 weeks, study length 104 weeks): 5020 mg/kg/day
